Test results from patent US20240277743A1, “RESTORING PHYSIOLOGY WITH SMALL MOLECULE MIMICS OF MISSING PROTEINS” (The Board of Trustees Of The University Of Illinois, priority 2014, published 2024).

Key:
Type in all cases: cell-based, Saccharomyces cerevisiae
trk1Δtrk2Δ yeast [1] = test: Functional complementation of a protein with a small molecule assay (rescue broth microdilution)
From the text: (§1) Broth microdilution minimum inhibitory concentration (MIC) assay. The protocol for the MIC broth microdilution assay was adapted from the Clinical and Laboratory Standards Institute document M27-A2 and performed as previously described. Gray, K. C. et. al. Proc. Natl. Acad. Sci. U.S.A. 109, 2234-2239 (2012); Palacios, D. S. et al. J. Am. Chem. Soc. 129, 13804-13805 (2007).
(§2) Functional complementation of a protein with a small molecule assay. The protocol for the rescue broth microdilution assay was conducted as described in the MIC assay above with the following additions: trk1atrk2Δ yeast were grown in high potassium (100 mM) YPAD liquid media overnight and transferred to normal potassium YPAD liquid media containing vehicle or the indicated concentration of AmB.

wild type S. cerevisiae = test: Growth of wild type cells treated with AmB
From the text: as §1, §2

trk1Δtrk2Δ cells [2] = test: 86Rb+ uptake assay; conditions: 3 μM; FIG. 2F
Experimental: ^86Rb^+ uptake assay. The procedure for 86Rb uptake was adapted from Mulet, J. M. et al. Mol. Cell. Biol. 19, 3328-3337 (1999). Overnight yeast cultures were grown as described above. The supernatant was poured off, and the cells were resuspended in sterile water. This wash was repeated two more times. The cells were then resuspended in 40 mL of the potassium starvation/uptake buffer (50 mM succinic acid, 2% glucose, adjusted to pH 5.5 with Tris). After 3 hour incubation in the potassium starvation buffer, cells were centrifuged and washed twice with sterile water. Cells were resuspended in 1 mL of the potassium starvation/uptake buffer. Cell concentration was determined using an INCYTO®; Neubauer disposable hemocytometer, and wild type S. cerevisiae and trk1Δtrk2Δ cells were diluted to the same cell density. 700 μL of the yeast suspension was added to a 1.5 mL Eppendorf tube. After a 5 minute pre-incubation in the potassium starvation/uptake medium, AmB or C35deOAmB was added (final concentration 3 μM) as a DMSO solution. ^86RbCl (1.1 μCi) was then added to the reaction mixtures. Reaction mixtures were vortexed to ensure a homogeneous solution. […] Moist filters were transferred to plastic vials for measuring radioactivity. Radioactivity was monitored using a Perkin Elmer Wizard automatic gamma counter. […]

trk1Δtrk2Δ cells [3] = test: Cell viability assay (propidium iodide staining); conditions: 125 nM AmB, 24 hours, FIG. 2H
Experimental: Cell viability assay. WT and trk1 Δtrk2Δ cells were inoculated in high potassium (100 mM KCl) YPAD. Starter cultures were grown at 30° ° C. for 14-15 hours. Cells were then cultured in high potassium YPAD at 30° ° C. for 2-2.5 hours. 100 μL of a 0.25 mg/mL propidium iodide (PI. Sigma-Aldrich P4864) solution was prepared. After 2-2.5 hours, cells were centrifuged at 800 g for 5 minutes, at 23° C. The supernatant was decanted, cells were resuspended in 40 mL of high potassium YPAD, vortexed, and centrifuged. The wash step was repeated. After pouring off the supernatant, cells were resuspended in 15 mL of high potassium YPAD, vortexed, and diluted to an OD600 of 0.5. To set one (WT, WT+PI, trk1Δtrk2Δ, and trk1Δtrk2Δ+PI) and set two (WT+PI+AmB, trk1 Δtrk2Δ+PI+AmB), 26.4 μL of DMSO were added to 1 mL aliquots of WT and trk1Δtrk2Δ, and incubated at 30° C. for 30 minutes. A 1% w/v low gelling temperature agarose (Sigma-Aldrich A9414) was prepared in normal potassium (10 mM) YPAD. When set one incubation completed, cells were pulse centrifuged, supernatant was removed, and resuspended in normal potassium YPAD to wash. […] The total number of PI stained cells was subtracted from the total cells recorded, and divided by total cells to give % viability. At least 200 cells were recorded per treatment group and 4 independent sets of data were obtained.

trk1Δtrk2Δ yeast [4] = test: Sustainable restoration of cell growth assay (max OD600, doubling time)
Experimental: Sustainable restoration of cell growth assay. Wild type and trk1 Δtrk2Δ yeast were treated as described in the functional complementation experiment described above, with the trk1 Δtrk2Δ yeast treated with 125 nM AmB. The OD600 was measured every hour for 24 hours, including a reading at time zero. Wild type yeast were then streaked onto normal potassium YPAD agar plates and AmB-rescued TrklAtrk2Δ yeast were streaked onto AmB-containing (0.125 μM) normal potassium YPAD agar plates. These agar plates were then incubated at 30° ° C. for about 48 hours. The same procedure was then repeated for over 42 days, measuring the max OD600 and doubling time every three days. Doubling time was determined using the following equation: Td=(t2−t1)×[log(2)/log (q2/q1)], where t2 and t1 represent the time at the two points and q2 and q1 represent the OD600 values in the exponential phase of growth (OD600 from 0.2 to 0.6).

C[C@@H]1[C@H](O)[C@@H](C)/C=C/C=C/C=C/C=C/C=C/C=C/C=C/[C@H](O[C@@H]2O[C@H](C)[C@@H](O)[C@H](N)[C@@H]2O)C[C@@H]2O[C@](O)(C[C@@H](O)C[C@@H](O)[C@H](O)CC[C@@H](O)C[C@@H](O)CC(=O)O[C@H]1C)C[C@H](O)[C@H]2C(=O)O [AmB, amphotericin B]
trk1Δtrk2Δ yeast cell growth in broth dilution assay (trk1Δtrk2Δ yeast [1]; at or above the minimum inhibitory concentration): no growth | trk1Δtrk2Δ yeast cell growth in broth dilution assay (trk1Δtrk2Δ yeast [1]; intermediate concentrations, normal potassium YPAD, FIG. 2D): dose-dependent increase of growth | growth stimulatory effects on wild type cells (wild type S. cerevisiae): no growth stimulatory effects | 86Rb+ uptake in trk1Δtrk2Δ cells (trk1Δtrk2Δ cells [2]): uptake was restored | cell viability of AmB-rescued trk1Δtrk2Δ cells versus wild type (trk1Δtrk2Δ cells [3]): Equivalent levels of cell viability | doubling time of AmB-rescued trk1Δtrk2Δ cells relative to wild type (trk1Δtrk2Δ yeast [4]; 125 nM AmB): 1.7 times longer | sustainability of cell growth of AmB-rescued trk1Δtrk2Δ cells (trk1Δtrk2Δ yeast [4]; 125 nM AmB, passed every 3 days for over a month, FIG. 2I): sustained, vigorous cell growth | maximum cell density (max OD600) of treated trk1Δtrk2Δ cells (trk1Δtrk2Δ yeast [4]; liquid culture after 24 h, versus wild type, FIG. 2G): matched that of the wild type
